Structures are written as SMILES.

The target in assay [1] is T1, Peroxisome proliferator-activated receptor gamma (Homo sapiens, UniProt P37231).
T1 sequence (P37231 whole entry): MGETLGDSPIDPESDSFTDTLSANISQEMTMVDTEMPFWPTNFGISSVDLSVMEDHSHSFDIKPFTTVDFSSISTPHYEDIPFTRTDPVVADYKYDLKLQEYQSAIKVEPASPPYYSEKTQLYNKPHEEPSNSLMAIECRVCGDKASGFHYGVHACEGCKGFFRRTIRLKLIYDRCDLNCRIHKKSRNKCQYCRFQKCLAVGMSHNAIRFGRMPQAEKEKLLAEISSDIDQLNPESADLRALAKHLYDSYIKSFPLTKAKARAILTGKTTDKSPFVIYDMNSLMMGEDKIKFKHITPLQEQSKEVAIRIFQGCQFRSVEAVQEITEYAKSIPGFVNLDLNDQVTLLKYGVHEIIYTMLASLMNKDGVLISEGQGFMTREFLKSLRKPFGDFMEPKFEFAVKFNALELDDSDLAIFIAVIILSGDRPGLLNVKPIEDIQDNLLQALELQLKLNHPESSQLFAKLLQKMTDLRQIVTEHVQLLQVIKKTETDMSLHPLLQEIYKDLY
Nature of the assay: Agonist activity at human PPARgamma ligand binding domain expressed in monkey COS7 cells cotransfected with Gal4 by luciferase reporter gene assay. (In general: A reporter such as luciferase makes a cellular process visible.)

Assay [2] addresses T2, Peroxisome proliferator-activated receptor delta (Homo sapiens, UniProt Q03181).
T2 sequence (Q03181 whole entry): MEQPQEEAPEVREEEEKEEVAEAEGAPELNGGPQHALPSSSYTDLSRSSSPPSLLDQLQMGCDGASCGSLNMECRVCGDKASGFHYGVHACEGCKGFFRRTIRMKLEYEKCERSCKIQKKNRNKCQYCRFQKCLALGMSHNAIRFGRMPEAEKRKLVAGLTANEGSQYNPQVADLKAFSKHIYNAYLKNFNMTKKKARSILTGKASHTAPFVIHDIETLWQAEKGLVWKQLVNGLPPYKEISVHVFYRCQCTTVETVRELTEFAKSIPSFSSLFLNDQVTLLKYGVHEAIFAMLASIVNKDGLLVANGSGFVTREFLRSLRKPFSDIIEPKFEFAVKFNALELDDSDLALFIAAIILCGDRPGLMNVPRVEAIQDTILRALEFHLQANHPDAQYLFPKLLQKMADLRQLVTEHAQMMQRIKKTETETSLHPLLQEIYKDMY
The experiment in a line: Agonist activity at human PPARdelta ligand binding domain expressed in monkey COS7 cells cotransfected with Gal4 by luciferase reporter gene assay.

What is called EC50 is the concentration at which the effect is half-maximal. Consider `COC(c1ccc(Br)cc1)C1CC1c1cc(C)c(OC(C)(C)C(=O)O)c(C)c1` (stereo not drawn), for which the EC50 in assay [1] came to 19 nM; in assay [2], 54 nM.

Regarding `CCOC(c1ccc(OC(F)(F)F)cc1)C1CC1c1cc(C)c(OC(C)(C)C(=O)O)c(C)c1` (stereo not drawn), it took 39 nM to reach a half-maximal effect in assay [1] (EC50).

These data come from BindingDB's records for doi:10.1021/ml400413c (Dart Neuroscience, 2013).
